According to PMC12112332, “Characterization of Novel and Known Activators of Cannabinoid Receptor Subtype 2 Reveals Mixed Pharmacology That Differentiates Mycophenolate Mofetil and GW-842,166X from MDA7” (International Journal of Molecular Sciences, 2025):
pEC50: −log10 of the molar value. Read-outs that look alike come from different tables or passages of the source.

How the values were obtained:
Human CB2 = Human CB2 (Homo sapiens, UniProt P34972); experiment: cAMP inhibition assay (HitHunter cAMP XS+, Eurofins) in human CB2 cells; type: cell-based; conditions: for hCB2 cAMP (−) CP55,940 % Max: absence of CP55,940; for hCB2 cAMP (−) CP55,940 % Max / hCB2 cAMP (+) CP55,940 % Max: % of maximal CP55,940 response; for hCB2 cAMP (+) CP55,940 % Max: presence of EC20 CP55,940
Sequence of Human CB2 (P34972 whole entry): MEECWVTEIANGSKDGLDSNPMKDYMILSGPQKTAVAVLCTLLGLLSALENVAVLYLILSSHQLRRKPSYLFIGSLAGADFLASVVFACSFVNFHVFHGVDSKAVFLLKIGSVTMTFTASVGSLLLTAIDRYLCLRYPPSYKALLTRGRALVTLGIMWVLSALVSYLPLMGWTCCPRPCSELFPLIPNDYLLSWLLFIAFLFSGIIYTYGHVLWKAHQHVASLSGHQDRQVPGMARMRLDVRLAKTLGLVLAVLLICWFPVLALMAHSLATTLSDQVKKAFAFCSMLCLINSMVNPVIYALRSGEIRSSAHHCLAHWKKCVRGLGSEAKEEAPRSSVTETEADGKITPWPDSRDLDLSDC
Method: Assays were performed by Eurofins Discovery (Freemont, CA, USA). cAMP Hunter cell lines were expanded from freezer stocks according to standard procedures. Human CB2 cells were seeded in a total volume of 20 μL into white-walled, 384-well microplates and incubated at 37 °C for the appropriate time prior to testing. cAMP modulation was determined using the DiscoverX HitHunter cAMP XS+ assay. For agonist determination, cells were incubated with samples in the presence of EC80 forskolin to induce a response. Media was aspirated from cells and replaced with 10 μL HBSS/10 mM HEPES. Intermediate dilution of sample stocks was performed to generate 4× sample in assay buffer, and 5 μL of 4× sample was added to cells. Then, 5 μL of 4× EC80 forskolin diluted in HBSS/HEPES was added and incubated at 37 °C for 30 min. The final assay vehicle concentration was 1%. For allosteric determination, cells were pre-incubated with the sample followed by agonist induction at the EC20 concentration. Media was aspirated from cells and replaced with 10 μL HBSS/10 mM HEPES. Intermediate dilution of sample stocks was performed to generate 4× samples in assay buffer. Then, 5 μL of 4× compound was added to the cells and incubated at room temperature or 37 °C for 5 min. Subsequently, 5 μL of 4× EC20 agonist was added to the cells and incubated at 37 °C for 30 min. EC80 forskolin was included.
After appropriate compound incubation, the assay signal was generated by incubation with 5 μL cAMP XS+ Ab reagent, followed by 20 μL cAMP XS+ ED/CL lysis cocktail for one hour at room temperature. Then, 20 μL cAMP XS+ EA reagent was added and incubated for two hours at room temperature. Microplates were read following signal generation with a PerkinElmer Envision^TM instrument for chemiluminescent signal detection.
Compound activity was analyzed using the CBIS data analysis suite (ChemInnovation, San Diego, CA, USA). For agonist mode assays, percentage activity was calculated using the following formula: % Activity = 100% × (1 − (mean RLU of test sample − mean RLU of MAX control)/(mean RLU of vehicle control − mean RLU of MAX control)).
For Gi positive allosteric mode assays, percentage modulation was calculated using the following formula: % Modulation = 100% × (1 − (mean RLU of test sample − mean RLU of MAX control)/(mean RLU of EC20 control − mean RLU of MAX control)).

rat CB2 = target: T1, rat CB2 (Rattus norvegicus, UniProt Q9QZN9); experiment: β-arrestin recruitment assay (PathHunter, Eurofins) in rat CB2 cells; type: cell-based; design: expressed in transfected cells; conditions: for rCB2 β-Arrestin (−) CP55,940 % Max / rCB2 β-Arrestin (+) CP55,940 % Max: % of maximal CP55,940 response
T1 sequence (Q9QZN9 1-360): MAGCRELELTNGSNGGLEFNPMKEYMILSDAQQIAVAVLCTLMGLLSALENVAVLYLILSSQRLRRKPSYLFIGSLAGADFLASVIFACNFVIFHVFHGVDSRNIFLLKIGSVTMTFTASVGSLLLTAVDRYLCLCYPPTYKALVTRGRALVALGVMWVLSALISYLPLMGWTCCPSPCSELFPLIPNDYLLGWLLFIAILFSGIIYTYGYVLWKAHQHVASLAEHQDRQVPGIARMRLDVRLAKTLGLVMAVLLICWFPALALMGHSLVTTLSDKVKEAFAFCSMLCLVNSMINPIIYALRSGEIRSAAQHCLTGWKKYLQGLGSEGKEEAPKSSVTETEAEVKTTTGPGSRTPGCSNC
Method: Assays were performed by Eurofins Discovery (Freemont, CA, USA). PathHunter cell lines were expanded from freezer stocks according to standard procedures. Rat CB2 cells were seeded in a total volume of 20 μL into white-walled, 384-well microplates and incubated at 37 °C for the appropriate time prior to testing. For agonist determination, cells were incubated with the sample to induce a response. Intermediate dilution of sample stocks was performed to generate a 5× sample in assay buffer. A total of 5 μL of 5× sample was added to the cells and incubated at 37 °C or room temperature for at least 120 min. The final assay vehicle concentration was 1%. For allosteric modulator determination, cells were pre-incubated with the sample followed by agonist challenge at the EC20. Intermediate dilution of sample stocks was performed to generate a 5× sample in assay buffer. A total of 5 μL of 5× sample was added to cells and incubated at 37 °C or room temperature for 15 min. Vehicle concentration was 1%. Then, 5 μL of 6× EC20 agonist in assay buffer was added to the cells and incubated at 37 °C or room temperature for at least 120 min.
The assay signal was generated through a single addition of 15 μL (50% v/v) of PathHunter Detection reagent cocktail, followed by a one-hour incubation at room temperature. Microplates were read following signal generation with a PerkinElmer Envision^TM instrument for chemiluminescent signal detection.
Compound activity was analyzed using the CBIS data analysis suite (ChemInnovation). For agonist mode assays, percentage activity was calculated using the following formula: % Activity = 100% × (mean RLU of test sample − mean RLU of vehicle control)/(mean MAX control ligand − mean RLU of vehicle control).
For positive allosteric mode assays, percentage modulation was calculated using the following formula: % Modulation = 100% × ((mean RLU of test sample − mean RLU of EC20 control)/(mean RLU of MAX control ligand − mean RLU of EC20 control)).

[1] = hCB2 cAMP (+) CP55,940 pEC50, presence of EC20 CP55,940, EC80 forskolin
[2] = hCB2 cAMP (−) CP55,940 pEC50, absence of CP55,940, EC80 forskolin
[3] = rCB2 β-Arrestin (+) CP55,940 pEC50, presence of EC20 CP55,940
[4] = rCB2 β-Arrestin (−) CP55,940 pEC50, absence of CP55,940

Row | SMILES | hCB2 cAMP (−) CP55,940 % Max (Human CB2) | pEC50 (Human CB2; [1]) | pEC50 (Human CB2; [2]) | hCB2 cAMP (+) CP55,940 % Max (Human CB2) | rCB2 β-Arrestin (−) CP55,940 % Max (rat CB2; absence of CP55,940) | rCB2 β-Arrestin (+) CP55,940 % Max (rat CB2; presence of EC20 CP55,940) | pEC50 (rat CB2; [3]) | pEC50 (rat CB2; [4]) | hCB2 cAMP (−) CP55,940 pEC50 (Human CB2; absence of CP55,940, EC80 forskolin) | EC50 (Human CB2; presence of EC20 CP55,940, EC80 forskolin, read-out: hCB2 cAMP (+) CP55,940 pEC50 (converted)) | EC50 (rat CB2; absence of CP55,940, read-out: rCB2 β-Arrestin (−) CP55,940 pEC50 (converted)) | EC50 (rat CB2; presence of EC20 CP55,940, read-out: rCB2 β-Arrestin (+) CP55,940 pEC50 (converted))
1 | O=C(NCC1CCOCC1)c1cnc(Nc2ccc(Cl)cc2Cl)nc1C(F)(F)F [GW-842,166X, 2-(2,4-dichloroanilino)-N-(oxan-4-ylmethyl)-4-(trifluoromethyl)pyrimidine-5-carboxamide] | 120% | 5.29 | 5.69 | 119% | 97% | 120% | 6.20 | 6.79 |  |  |  | 
2 | CC1(Cc2ccccc2)COc2cc(C(=O)N3CCCCC3)ccc21 (stereo not drawn) [MDA7, 1-[(3-benzyl-3-methyl-2,3-dihydro-1-benzofuran-6-yl)carbonyl]piperidine] | 108% | < 5.00 | < 5.00 | 111% | 38% | 40% | < 5.00 | 7.32 |  |  |  | 
3 | COc1c(C)c2c(c(O)c1C/C=C(\C)CCC(=O)OCCN1CCOCC1)C(=O)OC2 [Mycophenolate mofetil] | 46% |  |  | 41% | 114% | 113% |  |  | < 5.0 | > 10000 nM | 1150 nM | 1350 nM
